From PubChem BioAssay (NCI) come the findings set out here.

Among the test systems are NCI-H226 lung; HCT-15 colon; RXF 393 renal; EKVX NSCLC; SW-620 colon; SK-MEL-2 melanoma; SN12C renal; SF-295 CNS; DU-145 prostate; HOP-62 NSCLC.
Holding throughout (test): NCI-60 cell line screen, 48 h

Values joined by “and” are separate entries in the source; they are usually repeats but may differ in a detail not shown here. Equal values may be shown once.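 Cultured in 96-well plates, cells were exposed to test compound for 48 hours across five concentrations. At the GI50, growth is halved. The concentration for full growth arrest is given as TGI.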

In the case of `O=c1cc(O)c2c(O)cc(O)cc2o1`, the TGI with NCI-H226 lung, in the test with HCT-15 colon, with RXF 393 renal, in the test on EKVX NSCLC, with SW-620 colon and in the test on SK-MEL-2 melanoma was greater than 100 µM each time. Also, the TGI in the test with SN12C renal, with SF-295 CNS, with DU-145 prostate and in the test with HOP-62 NSCLC was greater than 100 µM throughout.

For the molecule `C[C@@](O)(/C=C/[C@H]1CC=CC(=O)O1)[C@@H](C[C@@H](O)\C=C/C=C\C=C\CO)OP(=O)(O)O`, the TGI in the test with NCI-H226 lung was 18.7 µM; with HCT-15 colon, 55.9 µM and 79.4 µM; in the test on RXF 393 renal it was 23.8 µM and 13 µM; with EKVX NSCLC it was 65.6 µM and 49.1 µM; with SW-620 colon, 70.9 µM; in the test on SK-MEL-2 melanoma, 65.2 µM and 42.4 µM. For the same molecule, the TGI with SN12C renal was 80.5 µM; with SF-295 CNS, 13.4 µM; in the test on DU-145 prostate it was 32.5 µM; in the test on HOP-62 NSCLC, 29.5 µM and 12.1 µM. Besides, the GI50 with HCT-15 colon was 11.4 µM; in the test on EKVX NSCLC it was 14.7 µM; with SK-MEL-2 melanoma, 19.8 µM; in the test on HOP-62 NSCLC, 10.1 µM.

In the case of `C#C/C=C/CC1OC(C(Br)CC)CC(Br)C2CC1O2` (centres undefined), the TGI in the test with NCI-H226 lung, in the test on HCT-15 colon, with RXF 393 renal, in the test with EKVX NSCLC, in the test on SW-620 colon and in the test on SK-MEL-2 melanoma was greater than 100 µM each time. Also, the TGI in the test on SN12C renal, in the test on SF-295 CNS, in the test on DU-145 prostate and with HOP-62 NSCLC was greater than 100 µM each time.

Consider `Cc1ncc(-c2ccnc(Nc3ccc(S(C)(=O)=O)cc3)n2)n1C(C)C`, for which the GI50 was 0.902 µM with NCI-H226 lung; 1.41 µM with HCT-15 colon; 0.211 µM with RXF 393 renal; 1.56 µM in the test with EKVX NSCLC; 1.02 µM with SW-620 colon; 1.38 µM with SK-MEL-2 melanoma. Moreover, the GI50 is 1.34 µM with SN12C renal, 1.67 µM with SF-295 CNS, 1.32 µM in the test on DU-145 prostate and 1.36 µM with HOP-62 NSCLC. Besides, the TGI in the test with NCI-H226 lung was greater than 8.47 µM; in the test on HCT-15 colon, greater than 8.6 µM; with RXF 393 renal, 0.678 µM; with EKVX NSCLC, 5.54 µM; with SW-620 colon it was greater than 10 µM; with SK-MEL-2 melanoma, 3.17 µM. Moreover, the TGI with SN12C renal is 9.84 µM; in the test on SF-295 CNS it was 6.75 µM; in the test on DU-145 prostate, greater than 10 µM; with HOP-62 NSCLC, greater than 10 µM.

Regarding `Cn1c(C(C)(C)OC(=O)Oc2ccccc2)cnc1[N+](=O)[O-]`, the TGI with NCI-H226 lung, in the test on HCT-15 colon, in the test on RXF 393 renal, in the test with EKVX NSCLC, with SW-620 colon and with SK-MEL-2 melanoma was greater than 100 µM each time. In addition, the TGI in the test with SN12C renal, with SF-295 CNS, with DU-145 prostate and with HOP-62 NSCLC was greater than 100 µM in each case.

For the molecule `CCc1ncnc2cc(OCC3CO3)c(OC)cc12` (centres undefined), the TGI was greater than 100 µM in the test on NCI-H226 lung; 34.9 µM with HCT-15 colon; 18.7 µM in the test on RXF 393 renal; greater than 100 µM in the test on EKVX NSCLC; greater than 50.8 µM with SW-620 colon; 12.4 µM with SK-MEL-2 melanoma. Besides, the TGI with SN12C renal was 16.7 µM; in the test on SF-295 CNS it was 30.3 µM; with DU-145 prostate, greater than 100 µM; in the test on HOP-62 NSCLC, 38.7 µM.

In the case of `O=C(c1ccccc1O)c1[nH]c(Cl)c(Cl)c1-n1c(C(=O)c2ccccc2O)cc(Cl)c1Cl`, the GI50 in the test with NCI-H226 lung is 1.63 µM and 0.706 µM; in the test on HCT-15 colon it was 0.316 µM and 0.298 µM; in the test on RXF 393 renal, 1.09 µM and 0.754 µM; in the test with EKVX NSCLC, 0.549 µM; in the test on SW-620 colon it was 0.869 µM and 0.716 µM; in the test with SK-MEL-2 melanoma, 0.335 µM and 1.13 µM. Besides, the GI50 in the test with SN12C renal was 0.399 µM and 0.368 µM; in the test on SF-295 CNS it was 1.05 µM and 0.792 µM; in the test on DU-145 prostate, 2.25 µM and 1.81 µM; in the test on HOP-62 NSCLC it was 2.14 µM and 3.49 µM. Further, the TGI was 14.9 µM and 5.97 µM with NCI-H226 lung; 12.1 µM and 11.1 µM in the test on HCT-15 colon; 9.12 µM and 6.72 µM in the test on RXF 393 renal; 10 µM with EKVX NSCLC; 13.2 µM and 12.7 µM with SW-620 colon; 1.41 µM and 5.68 µM in the test on SK-MEL-2 melanoma. Also, the TGI in the test on SN12C renal was 11.9 µM and 11 µM; in the test with SF-295 CNS, 4.16 µM and 3.38 µM; in the test with DU-145 prostate, 16.3 µM and 16.6 µM; with HOP-62 NSCLC it was 6.49 µM and 17.2 µM.

Consider `Cc1cc(O)cc(C)c1/C=C/c1cncc(C(=O)OC(C)(C)C)c1`, for which the GI50 in the test on NCI-H226 lung was greater than 25 µM; in the test with HCT-15 colon, 11.5 µM; with RXF 393 renal, 9.75 µM; in the test on EKVX NSCLC it was 12.6 µM; with SW-620 colon, 20.2 µM; in the test with SK-MEL-2 melanoma it was greater than 22.1 µM. Further, the GI50 is 12.6 µM in the test with SN12C renal, 19.8 µM in the test with SF-295 CNS, 17 µM with DU-145 prostate and greater than 19.4 µM in the test on HOP-62 NSCLC. Further, the TGI in the test with NCI-H226 lung, in the test with HCT-15 colon, in the test with RXF 393 renal, in the test on EKVX NSCLC, in the test with SW-620 colon and in the test on SK-MEL-2 melanoma was greater than 25 µM each time. Moreover, the TGI with SN12C renal, in the test on SF-295 CNS, in the test on DU-145 prostate and with HOP-62 NSCLC was greater than 25 µM each time.

`O=Nc1c(O)c2ccccc2c2ccccc12`: the GI50 was 2.03 µM with NCI-H226 lung; 0.398 µM in the test on HCT-15 colon; 1.72 µM with RXF 393 renal; 1.7 µM with EKVX NSCLC; 1.2 µM in the test on SW-620 colon; 1.8 µM with SK-MEL-2 melanoma. The GI50 is 0.449 µM with SN12C renal, 1.64 µM with SF-295 CNS, 0.961 µM with DU-145 prostate and 0.768 µM in the test on HOP-62 NSCLC. Further, the TGI with NCI-H226 lung is 3.83 µM; with HCT-15 colon it was 2.4 µM; in the test with RXF 393 renal it was 3.23 µM; in the test with EKVX NSCLC, 3.32 µM; with SW-620 colon, 3.19 µM; in the test with SK-MEL-2 melanoma, 3.99 µM. The TGI with SN12C renal was 1.88 µM; with SF-295 CNS, 3.5 µM; in the test on DU-145 prostate, 2.23 µM; in the test with HOP-62 NSCLC, 2.41 µM.

For `NC(CO)C(=O)NCC(=O)O` (centres undefined), the TGI in the test with NCI-H226 lung, with HCT-15 colon, with RXF 393 renal, in the test with EKVX NSCLC, in the test with SW-620 colon and with SK-MEL-2 melanoma was greater than 100 µM in each case. For the same molecule, the TGI with SN12C renal, in the test on SF-295 CNS, in the test on DU-145 prostate and with HOP-62 NSCLC was greater than 100 µM in each case.
